{"source": "patent US5217986A", "about": "“Anti-allergy agent” (Harbor Branch Oceanographic Institution, Inc., priority 1992, dated 1993)", "key": {"guinea pig ileum": {"system": "guinea pig ileum", "experiment": "Guinea pig ileum assay (inhibition of Rα-methylhistamine effect on electrical field stimulated contractions)", "description": "Male guinea pigs (450-500 g) were sacrificed by cervical dislocation. Portions of the ileum (20-40 cm) were removed and placed in Tyrodes solution (NaCl, 8.0; KCl, 0.2; MgCl2.6H2 O, 0.2; CaCl2, 0.13; NaH2 PO4, 0.06; dextrose, 1.0; NaHCO3, 1.0 g/l). The ilea were cut into 2.5 cm segments, mounted between platinum wire coaxial electrodes and placed in water-jacketed organ baths containing 25 ml of the Tyrodes solution. Bath fluid temperature was maintained at 37° C. and aerated with 95% 02-5% CO2. The muscles were suspended from isometric force transducers (Grass FT03C) under 0.3 g resting tension. Contractions were amplified on a Buxco tension monitor and recorded on a Harvard polygraph. […] Once this 80% response was determined it was evoked every 60 seconds throughout the experiment. […]\nRα-methylhistamine inhibits the electrical field stimulated contractions of the guinea pig ileum and was used as the H3 agonist reference standard. H3 agonists were studied for their ability to inhibit the electrical field stimulated contractions and their activity was expressed as a percentage of the maximum Rα-methylhistamine effect. […]\nRelative potency for agonists was determined from the pD2 (Furchgott, R. F., The pharmacology of Vascular Smooth Muscle. Pharm. Rev. 7, 183, 1955.) calculations. Relative potency for antagonists was determined from pA2 calculations. […]"}, "H3 receptor": {"target": "T1, H3 receptor (Cavia porcellus, UniProt Q9JI35)", "T1 construct": "The source of the H3 receptors in this experiment was guinea pig brain; from tissue; host or cells: guinea pig brain membranes", "T1 sequence (Q9JI35 whole entry)": "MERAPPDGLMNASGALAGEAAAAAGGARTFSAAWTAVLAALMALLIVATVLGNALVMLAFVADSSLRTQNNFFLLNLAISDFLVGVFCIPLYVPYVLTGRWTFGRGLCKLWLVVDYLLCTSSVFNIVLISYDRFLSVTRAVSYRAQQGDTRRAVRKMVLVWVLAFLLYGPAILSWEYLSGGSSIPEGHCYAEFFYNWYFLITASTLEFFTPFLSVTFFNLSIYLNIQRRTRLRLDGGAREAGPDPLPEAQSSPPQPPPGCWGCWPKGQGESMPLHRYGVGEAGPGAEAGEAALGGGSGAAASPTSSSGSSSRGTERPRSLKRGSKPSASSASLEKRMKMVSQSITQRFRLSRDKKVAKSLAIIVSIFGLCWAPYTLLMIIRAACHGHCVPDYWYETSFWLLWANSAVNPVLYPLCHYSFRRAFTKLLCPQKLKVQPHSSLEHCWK", "experiment": "H3 receptor binding assay ([3H]R-α-methylhistamine, guinea pig brain membranes)", "description": "The source of the H3 receptors in this experiment was guinea pig brain. The animals used weighed 400-600 g. The tissue was homogenized using a Polytron in a solution of 50 mM Tris, pH 7.5. The final concentration of tissue in the homogenization buffer was 10% w/v. The homogenates were centrifuged at 1000× g for 10 minutes in order to remove clumps of tissue and debris. The resulting supermatants were then centrifuged at 50,000× g for 20 minutes in order to sediment the membranes, which were next washed 3 times in homogenization buffer (50,000× g for 20 minutes each). The membranes were frozen and stored at -70° C. until needed.\nThe compound to be tested was dissolved in DMSO (dimethyl sulfoxide) and then diluted into the binding buffer (50 mM Tris, pH 7.5) such that the final concentration was 2 μg/mL with 0.1% DMSO. Membranes were then added (400 μg of protein) to the reaction tubes. The reaction was started by the addition of 3 nM [^3 H]R-α-methylhistamine (8.8 Ci/mmol) and incubated at 30° C. for 30 minutes. Bound ligand was separated from unbound ligand by filtration, and the amount of radioactive ligand bound to the membranes was quantitated by liquid scintillation spectrometry. The incubation was performed in duplicate and the standard error was less than 10%."}}, "data": [{"smiles": "COc1ccc(CC(=NO)C(=O)NCCc2c[nH]cn2)cc1Br", "note": "[verongamine]", "values": [{"measurement": "Guinea Pig Ileum", "setting": "guinea pig ileum; @ 1 μg/mL, 1 μM chlorpheniramine present, 37° C.", "result": "antagonist"}, {"measurement": "activity on guinea pig ileum", "setting": "guinea pig ileum; no concentration stated", "result": "H3 antagonist"}, {"measurement": "IC50", "setting": "H3 receptor; guinea pig brain membranes, 3 nM [3H]R-α-methylhistamine, 30° C., 30 minutes, pH 7.5", "result": 498, "unit": "nM"}, {"measurement": "activity in an H3 receptor assay", "setting": "H3 receptor; no concentration stated", "result": "active"}]}]}
